Activity calls are given as the source filed them. The rule behind the calls is not given here.
System: CCRIS mutagenicity, Ames/micronucleus/aberration tests
Assay: CCRIS mutagenicity studies

Q: How did the mutagenic call (Test System: AMES SALMONELLA TYPHIMURIUM, Strain/Indicator: TA98(1,8-DNP6), Metabolic Activation: RAT, LIVER, S-9, Method: STANDARD PLATE) turn out when `CC(=O)Nc1nc2c3cccnc3cc(C)c2n1C` was run?
A: inactive; negative

Q: What about the mutagenic call (Test System: AMES SALMONELLA TYPHIMURIUM, Strain/Indicator: TA98(NR), Metabolic Activation: RAT, LIVER, S-9, Method: STANDARD PLATE) of the same molecule?
A: active; positive

Q: What about the mutagenic call (Test System: AMES SALMONELLA TYPHIMURIUM, Strain/Indicator: TA98, Metabolic Activation: RAT, LIVER, S-9, Method: STANDARD PLATE) of the same molecule?
A: active; positive

Q: What about the mutagenic call (Test System: AMES SALMONELLA TYPHIMURIUM, Strain/Indicator: TA98, Method: STANDARD PLATE) of the same molecule?
A: active; positive

Q: With `CCN(CC)c1ccc(C(=C2C=CC(=[N+](CC)CC)C=C2)c2ccc(N(CC)CC)cc2)cc1` as the molecule, how does the mutagenic call (Test System: AMES SALMONELLA TYPHIMURIUM, Strain/Indicator: TA98, Metabolic Activation: HAMSTER, LIVER, S-9, AROCLOR 1254 (10%), Method: STANDARD PLATE) read?
A: inactive; negative

Q: And the mutagenic call (Test System: AMES SALMONELLA TYPHIMURIUM, Strain/Indicator: TA98, Metabolic Activation: NONE, Method: STANDARD PLATE)?
A: inactive; negative

Q: And the mutagenic call (Test System: AMES SALMONELLA TYPHIMURIUM, Strain/Indicator: TA98, Metabolic Activation: RAT, LIVER, S-9, AROCLOR 1254 (10%), Method: STANDARD PLATE)?
A: inactive; negative

Q: What about the mutagenic call (Test System: AMES SALMONELLA TYPHIMURIUM, Strain/Indicator: TA100, Metabolic Activation: HAMSTER, LIVER, S-9, AROCLOR 1254 (10%), Method: STANDARD PLATE) of the same molecule?
A: inactive; negative

Q: And the mutagenic call (Test System: AMES SALMONELLA TYPHIMURIUM, Strain/Indicator: TA100, Metabolic Activation: NONE, Method: STANDARD PLATE)?
A: inactive; negative

Q: And the mutagenic call (Test System: AMES SALMONELLA TYPHIMURIUM, Strain/Indicator: TA100, Metabolic Activation: RAT, LIVER, S-9, AROCLOR 1254 (10%), Method: STANDARD PLATE)?
A: inactive; negative

Q: What about the mutagenic call (Test System: AMES SALMONELLA TYPHIMURIUM, Strain/Indicator: TA1535, Metabolic Activation: NONE, Method: STANDARD PLATE) of the same molecule?
A: inactive; negative

Q: And the mutagenic call (Test System: AMES SALMONELLA TYPHIMURIUM, Strain/Indicator: TA1535, Metabolic Activation: RAT, LIVER, S-9, AROCLOR 1254 (10%), Method: STANDARD PLATE)?
A: inactive; negative

Q: And the mutagenic call (Test System: AMES SALMONELLA TYPHIMURIUM, Strain/Indicator: TA1537, Metabolic Activation: HAMSTER, LIVER, S-9, AROCLOR 1254 (10%), Method: STANDARD PLATE)?
A: inactive; negative

Q: What about the mutagenic call (Test System: AMES SALMONELLA TYPHIMURIUM, Strain/Indicator: TA1537, Metabolic Activation: NONE, Method: STANDARD PLATE) of the same molecule?
A: inactive; negative

Q: What about the mutagenic call (Test System: AMES SALMONELLA TYPHIMURIUM, Strain/Indicator: TA1537, Metabolic Activation: RAT, LIVER, S-9, AROCLOR 1254 (10%), Method: STANDARD PLATE) of the same molecule?
A: inactive; negative

Q: What about the mutagenic call (Test System: AMES SALMONELLA TYPHIMURIUM, Strain/Indicator: TA1538, Metabolic Activation: HAMSTER, LIVER, S-9, AROCLOR 1254 (10%), Method: STANDARD PLATE) of the same molecule?
A: inactive; negative

Q: And the mutagenic call (Test System: AMES SALMONELLA TYPHIMURIUM, Strain/Indicator: TA1538, Metabolic Activation: NONE, Method: STANDARD PLATE)?
A: inactive; negative

Q: What about the mutagenic call (Test System: AMES SALMONELLA TYPHIMURIUM, Strain/Indicator: TA1538, Metabolic Activation: RAT, LIVER, S-9, AROCLOR 1254 (10%), Method: STANDARD PLATE) of the same molecule?
A: inactive; negative

Q: What about the mutagenic call (Test System: Mouse lymphoma, Strain/Indicator: L5178Y (tk+/tk-), Metabolic Activation: None, Method: Suspension/plate) of the same molecule?
A: inactive; negative

Q: What about the mutagenic call (Test System: Mouse lymphoma, Strain/Indicator: L5178Y (tk+/tk-), Metabolic Activation: Rat, Liver, S-9, Aroclor 1254, Method: Suspension/plate) of the same molecule?
A: inactive; inconclusive (previous results negative)
